Reference: ChEMBL document CHEMBL3351906, “Bioactive triterpenoid saponins and phenolic compounds against glioma cells” (Bioorg Med Chem Lett, 2014)

Key:
U-251 = test: Inhibition of cell proliferation of human U251 cells assessed as cell viability at 100 uM after 72 hrs by sulforhodamine B assay; format: functional; settings: U-251, 72 h, read-out: Activity
C6 = test: Inhibition of cell proliferation of rat C6 cells assessed as cell viability at 100 uM after 72 hrs by sulforhodamine B assay; format: functional; settings: C6, 72 h, read-out: Activity

Compound	viability at 100 µM (U-251) [%]	viability at 100 µM (C6) [%]
CC(C)=CCC[C@](C)(O[C@@H]1O[C@H](CO[C@H]2O[C@H](CO)[C@@H](O)[C@@H]2O)[C@@H](O)[C@H](O)[C@H]1O)[C@H]1CC[C@]2(C)[C@@H]1[C@H](O)C[C@@H]1[C@@]3(C)CC[C@H](O)C(C)(C)[C@@H]3[C@@H](O)C[C@]12C [GINSENOSIDE F5]	102	92.8
C[C@@H]1O[C@@H](OC[C@H]2O[C@@H](Oc3c(-c4ccc(O)c(O)c4)oc4cc(O)cc(O)c4c3=O)[C@H](O)[C@@H](O)[C@@H]2O)[C@H](O)[C@H](O)[C@H]1O [RUTIN]	61.5	62.1
CC1(C)CC[C@]2(C(=O)O)CC[C@]3(C)C(=CC[C@@H]4[C@@]5(C)CC[C@H](O)C(C)(C)[C@@H]5CC[C@]43C)[C@@H]2C1 [OLEANOLIC_ACID]	67.8	59.2
O=C(/C=C/c1ccc(O)c(O)c1)O[C@@H]1C[C@](O)(C(=O)O)C[C@@H](O)[C@H]1O [CHLOROGENIC ACID]	56.6	77.4
C/C=C(\C)C(=O)O[C@H]1[C@H](O)[C@]2(CO)[C@H](O)C[C@]3(C)C(=CC[C@@H]4[C@@]5(C)CC[C@H](O[C@@H]6O[C@H](C(=O)O)[C@@H](O[C@@H]7O[C@H](CO)[C@@H](O)[C@H](O)[C@H]7O)[C@H](O)[C@H]6O[C@@H]6O[C@H](CO)[C@@H](O)[C@H](O)[C@H]6O)[C@@](C)(CO)[C@@H]5CC[C@]43C)[C@@H]2CC1(C)C	92.7	89.6
CC(C)=CCC[C@](C)(O)[C@H]1CC[C@]2(C)[C@@H]1[C@H](O)C[C@@H]1[C@@]3(C)CC[C@H](O[C@@H]4O[C@H](CO)[C@@H](O)[C@H](O)[C@H]4O[C@@H]4O[C@H](CO)[C@@H](O)[C@H](O)[C@H]4O)C(C)(C)[C@@H]3CC[C@]12C	99.1	53.1
C/C=C(/C)C(=O)O[C@H]1[C@H](O)[C@]2(CO)[C@H](O)C[C@]3(C)C(=CC[C@@H]4[C@@]5(C)CC[C@H](O[C@@H]6O[C@H](C(=O)O)[C@@H](O[C@@H]7O[C@H](CO)[C@@H](O)[C@H](O)[C@H]7O)[C@H](O)[C@H]6O[C@@H]6O[C@H](CO)[C@@H](O)[C@H](O)[C@H]6O)[C@](C)(CO)[C@@H]5CC[C@]43C)[C@@H]2CC1(C)C	94.6	90.7
CC(C)=CCC[C@@](C)(O)[C@H]1CC[C@]2(C)[C@@H]1[C@H](O)C[C@@H]1[C@@]3(C)CC[C@H](O)C(C)(C)[C@@H]3[C@@H](O[C@@H]3O[C@H](CO)[C@@H](O)[C@H](O)[C@H]3O[C@@H]3O[C@@H](C)[C@H](O)[C@@H](O)[C@H]3O)C[C@]12C	99	95.5
O=C(/C=C/c1ccc(O)c(O)c1)O[C@H]1[C@H](O)C[C@](O)(C(=O)O)C[C@H]1OC(=O)/C=C/c1ccc(O)c(O)c1	119	46
CC(C)=CCC[C@](C)(O)[C@H]1CC[C@]2(C)[C@@H]1[C@H](O)C[C@@H]1[C@@]3(C)CC[C@H](O)C(C)(C)[C@@H]3[C@@H](O[C@@H]3O[C@H](CO)[C@@H](O)[C@H](O)[C@H]3O[C@@H]3OC[C@@H](O)[C@H](O)[C@H]3O)C[C@]12C	108	59.3
CC(C)=CC/C=C(/C)[C@H]1CC[C@]2(C)[C@@H]1[C@H](O)C[C@@H]1[C@@]3(C)CC[C@H](O)C(C)(C)[C@@H]3[C@@H](O)C[C@]12C	92.7	75.6
O=C(O)[C@H]1O[C@@H](Oc2cc3oc(-c4ccccc4)cc(=O)c3c(O)c2O)[C@H](O)[C@@H](O)[C@@H]1O [BAICALIN]	91.8	80.4
CC(C)=CCC[C@](C)(O[C@@H]1O[C@H](CO[C@@H]2OC[C@H](O)[C@H](O)[C@H]2O)[C@@H](O)[C@H](O)[C@H]1O)[C@H]1CC[C@]2(C)[C@@H]1[C@H](O)C[C@@H]1[C@@]3(C)CC[C@H](O[C@@H]4O[C@H](CO)[C@@H](O)[C@H](O)[C@H]4O[C@@H]4O[C@H](CO)[C@@H](O)[C@H](O)[C@H]4O)C(C)(C)[C@@H]3CC[C@]12C [GINSENOSIDE RB2]	77.5	80.9
CC(C)=CCC[C@](C)(O[C@@H]1O[C@H](CO[C@@H]2O[C@H](CO)[C@@H](O)[C@H](O)[C@H]2O)[C@@H](O)[C@H](O)[C@H]1O)[C@H]1CC[C@]2(C)[C@@H]1[C@H](O)C[C@@H]1[C@@]3(C)CC[C@H](O[C@@H]4O[C@H](CO)[C@@H](O)[C@H](O)[C@H]4O[C@@H]4O[C@H](CO)[C@@H](O)[C@H](O)[C@H]4O)C(C)(C)[C@@H]3CC[C@]12C [GINSENOSIDE RB1]	76.1	79
CC(C)=CCC[C@](C)(O[C@@H]1O[C@H](CO[C@@H]2OC[C@H](O)[C@H](O)[C@H]2O)[C@@H](O)[C@H](O)[C@H]1O)[C@H]1CC[C@]2(C)[C@@H]1[C@H](O)C[C@@H]1[C@@]3(C)CC[C@H](O)C(C)(C)[C@@H]3[C@@H](O)C[C@]12C [GINSENOSIDE F3]	104	93.6
O=C(/C=C/c1ccc(O)c(O)c1)O[C@H](Cc1ccc(O)c(O)c1)C(=O)O [ROSMARINIC ACID]	70.8	54.5
CC(C)=CCC[C@](C)(O[C@@H]1O[C@H](CO)[C@@H](O)[C@H](O)[C@H]1O)[C@H]1CC[C@]2(C)[C@@H]1[C@H](O)C[C@@H]1[C@@]3(C)CC[C@H](O)C(C)(C)[C@@H]3[C@@H](O)C[C@]12C [GINSENOSIDE F1]	80.9	92
CC(C)=CCC[C@](C)(O)[C@H]1CC[C@]2(C)[C@@H]1[C@H](O)C[C@@H]1[C@@]3(C)CC[C@H](O)C(C)(C)[C@@H]3[C@@H](O[C@@H]3O[C@H](CO)[C@@H](O)[C@H](O)[C@H]3O[C@@H]3O[C@@H](C)[C@H](O)[C@@H](O)[C@H]3O)C[C@]12C [GINSENOSIDE RG2]	103	96.5
CC(C)=CCC[C@](C)(O[C@@H]1O[C@H](CO[C@@H]2O[C@H](CO)[C@@H](O)[C@H](O)[C@H]2O)[C@@H](O)[C@H](O)[C@H]1O)[C@H]1CC[C@]2(C)[C@@H]1[C@H](O)C[C@@H]1[C@@]3(C)CC[C@H](O[C@@H]4O[C@H](CO)[C@@H](O)[C@H](O)[C@H]4O)C(C)(C)[C@@H]3CC[C@]12C [GYPENOSIDE XVII]	86.5	80.8
CC(C)=CCC[C@](C)(O[C@@H]1O[C@H](CO[C@@H]2OC[C@@H](O)[C@H](O)[C@H]2O)[C@@H](O)[C@H](O)[C@H]1O)[C@H]1CC[C@]2(C)[C@@H]1[C@H](O)C[C@@H]1[C@@]3(C)CC[C@H](O[C@@H]4O[C@H](CO)[C@@H](O)[C@H](O)[C@H]4O[C@@H]4O[C@H](CO)[C@@H](O)[C@H](O)[C@H]4O)C(C)(C)[C@@H]3CC[C@]12C [GINSENOSIDE RB3]	95.1	57.8
CC(C)=CCC[C@](C)(O[C@@H]1O[C@H](CO)[C@@H](O)[C@H](O)[C@H]1O)[C@H]1CC[C@]2(C)[C@@H]1[C@H](O)C[C@@H]1[C@@]3(C)CC[C@H](O[C@@H]4O[C@H](CO)[C@@H](O)[C@H](O)[C@H]4O)C(C)(C)[C@@H]3[C@@H](O)C[C@]12C	92.5	65.6
C/C=C/C(=O)OC[C@H]1O[C@@H](O[C@H]2[C@H](O[C@H]3CC[C@]4(C)[C@H]5C[C@@H](O)[C@@H]6[C@@H]([C@](C)(CCC=C(C)C)O[C@@H]7O[C@H](CO[C@@H]8O[C@H](CO)[C@@H](O)[C@H](O)[C@H]8O)[C@@H](O)[C@H](O)[C@H]7O)CC[C@@]6(C)[C@]5(C)CC[C@H]4C3(C)C)O[C@H](CO)[C@@H](O)[C@@H]2O)[C@H](O)[C@@H](O)[C@@H]1O	97.2	99.4
CC(C)=CCC[C@@](C)(O)[C@H]1CC[C@]2(C)[C@@H]1[C@H](O)C[C@@H]1[C@@]3(C)CC[C@H](O[C@@H]4O[C@H](CO)[C@@H](O)[C@H](O)[C@H]4O[C@@H]4O[C@H](CO)[C@@H](O)[C@H](O)[C@H]4O)C(C)(C)[C@@H]3CC[C@]12C	77.5	97.2
CC(C)=CCC[C@](C)(O[C@@H]1O[C@H](CO)[C@@H](O)[C@H](O)[C@H]1O)[C@H]1CC[C@]2(C)[C@@H]1[C@H](O)C[C@@H]1[C@@]3(C)CC[C@H](O[C@@H]4O[C@H](CO)[C@@H](O)[C@H](O)[C@H]4O[C@@H]4O[C@H](CO)[C@@H](O)[C@H](O)[C@H]4O)C(C)(C)[C@@H]3CC[C@]12C [GINSENOSIDE RD]	78.4	102
CC(C)=CCC[C@](C)(O[C@@H]1O[C@H](CO[C@@H]2O[C@@H](CO)[C@H](O)[C@H]2O)[C@@H](O)[C@H](O)[C@H]1O)[C@H]1CC[C@]2(C)[C@@H]1[C@H](O)C[C@@H]1[C@@]3(C)CC[C@H](O[C@@H]4O[C@H](CO)[C@@H](O)[C@H](O)[C@H]4O[C@@H]4O[C@H](CO)[C@@H](O)[C@H](O)[C@H]4O)C(C)(C)[C@@H]3CC[C@]12C [GINSENOSIDE RC]	87.7	79
CC(C)=CCC[C@](C)(O[C@@H]1O[C@H](CO)[C@@H](O)[C@H](O)[C@H]1O)[C@H]1CC[C@]2(C)[C@@H]1[C@H](O)C[C@@H]1[C@@]3(C)CC[C@H](O[C@@H]4O[C@H](CO)[C@@H](O)[C@H](O)[C@H]4O)C(C)(C)[C@@H]3CC[C@]12C [GINSENOSIDE F2]	64.6	117
COc1c(O)ccc(O)c1-c1cc(=O)c2c(O)cc(O)c(OC)c2o1	87.5	57.7
